Measurements published in US11679103B2, “Multi-targeting agents for Alzheimer's disease therapy” (The Regents of the University of California, priority 2018, dated 2023).

Legend:
Aβ amyloid plaques = test: [3H]PIB competition autoradiography in postmortem human AD frontal cortex slices; assay type: binding; conditions: for GM/WM ratio of [3H]PIB binding: human AD frontal cortex; for effect on [3H]PIB binding level: GM and WM; for displacement of [3H]PIB (words, discussion): FIG. 10 and 11; for effect on [3H]PIB binding: 1 μM
Procedure: Post-mortem human AD frontal cortex sections (10 μm thick; human brain tissue obtained from Banner Sun Health Research Institute, Sun City, Ariz.) were preincubated in 10% alcohol PBS buffer for 10 minutes. The brain sections were placed in a glass chamber and incubated with [^3H]PIB (2 μCi/cc) in 10% alcohol PBS buffer, pH 7.4 at 37° C. for 1 h. The slices were then washed with cold 10% alcohol PBS buffer (2×3 mins), cold deionized water 1 min, respectively. The brain sections were air dried, exposed overnight on a phosphor film, and then placed on the Phosphor Autoradiographic Imaging System/Cyclone Storage Phosphor System (Packard Instruments Co). Regions of interest (ROIs) were drawn on the slices and the extent of binding of [^3H]PIB was measured with DLU/mm^2 using the OptiQuant acquisition and analysis program (Packard Instruments Co).
The Aβ plaque-α4β2* nAChR multi-agent was tested for binding to Aβ amyloid plaques in human postmortem AD brain frontal cortex slices labeled with [^3H]PIB (75-90 year olds, Braak score V-VI).

Amyloid β = target: T1, Amyloid β (Homo sapiens, UniProt P05067); conditions: cited from earlier work
T1 construct: host or cells: AD patients (clinical trials)

α4β2* nAChRs = α4β2* nAChRs (Rattus norvegicus, UniProt P09483+P12390); conditions: rat brain slices; for displacement of [3H]cytisine: 100 nM
Procedure: In Vitro Studies: Ex vivo rat brain slices were prepared at 10 μm thick using a Leica 1850 cryotome and used for [^3H]cytisine binding. […] The apposed phosphor screens were read and analyzed by OptiQuant acquisition and analysis program of the Cyclone Storage Phosphor System (Packard Instruments Co., Boston, Mass.). Region-of-interest of same size were drawn and analyzed on brain regions using OptiQuant software and binding of [^3H]cytisine measured in Digital Light Units/mm^2 (DLU/mm^2). Data was analyzed using following procedure: (a) the non-specific binding of [^3H]cytisine was subtracted for all samples; (b) the specific binding was normalized to 100% (no competitive ligand) and (c) the binding isotherms were fit to the Hill equation (KELL BioSoft software (v 6), Cambridge, U.K.).
Nicotinic receptor binding: The Aβ plaque-α4β2* nAChR multi-agents were tested for their affinity to the α4β2* nAChRs using rat brain slices labeled with [^3H]cytisine. […] Three brain regions analyzed included thalamus, frontal cortex and subiculum.

[1] = 10 μM test agent, control GM/WM approx. 3
[2] = 1 μM test agent, control GM/WM approx. 2

Chain of α4β2* nAChRs (P09483 31-630): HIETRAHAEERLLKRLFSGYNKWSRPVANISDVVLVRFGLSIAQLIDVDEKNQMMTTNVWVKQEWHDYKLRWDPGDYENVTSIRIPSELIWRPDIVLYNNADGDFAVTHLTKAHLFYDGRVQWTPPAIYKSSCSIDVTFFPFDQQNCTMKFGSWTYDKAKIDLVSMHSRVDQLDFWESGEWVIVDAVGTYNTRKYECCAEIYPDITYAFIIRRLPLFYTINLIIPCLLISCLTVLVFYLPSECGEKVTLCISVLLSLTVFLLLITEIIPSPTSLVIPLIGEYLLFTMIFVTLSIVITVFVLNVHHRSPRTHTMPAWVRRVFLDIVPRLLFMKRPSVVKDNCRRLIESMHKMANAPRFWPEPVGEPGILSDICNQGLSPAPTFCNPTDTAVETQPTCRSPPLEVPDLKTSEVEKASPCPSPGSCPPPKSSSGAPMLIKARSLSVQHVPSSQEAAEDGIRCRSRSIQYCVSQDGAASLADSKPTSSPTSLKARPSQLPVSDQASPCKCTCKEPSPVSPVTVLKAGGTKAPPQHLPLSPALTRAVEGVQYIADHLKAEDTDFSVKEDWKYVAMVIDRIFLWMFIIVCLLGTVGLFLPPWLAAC
Chain of α4β2* nAChRs (P12390 25-500): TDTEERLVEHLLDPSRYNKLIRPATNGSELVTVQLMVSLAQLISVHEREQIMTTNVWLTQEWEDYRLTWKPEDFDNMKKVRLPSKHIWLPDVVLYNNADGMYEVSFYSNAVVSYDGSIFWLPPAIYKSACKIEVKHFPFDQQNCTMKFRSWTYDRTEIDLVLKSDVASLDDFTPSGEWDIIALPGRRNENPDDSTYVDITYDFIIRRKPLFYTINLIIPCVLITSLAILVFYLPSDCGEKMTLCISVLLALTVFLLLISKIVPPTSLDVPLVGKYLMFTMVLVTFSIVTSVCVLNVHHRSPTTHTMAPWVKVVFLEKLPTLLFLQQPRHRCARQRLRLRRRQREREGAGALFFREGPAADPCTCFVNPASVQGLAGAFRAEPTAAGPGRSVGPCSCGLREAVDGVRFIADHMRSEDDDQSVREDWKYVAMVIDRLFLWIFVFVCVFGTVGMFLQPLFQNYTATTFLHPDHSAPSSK

Fexofenadine curcuminate [CUR-FEX]
GM/WM ratio of [3H]PIB binding (Aβ amyloid plaques; [1]): 1.96 | effect on [3H]PIB binding level (Aβ amyloid plaques; 10 μM): lower binding | reduction of GM/WM ratio of [3H]PIB (Aβ amyloid plaques; human AD frontal cortex (FIG. 10, 10 μM)): 35% | displacement of [3H]PIB (words, discussion) (Aβ amyloid plaques; human frontal cortex): largest displacement

Solanezumab: anti-amyloid monoclonal antibody
Aβ plaque load measured by PET imaging, before vs after antibody treatment (Amyloid β; large clinical trials): did not change significantly | Outcome (clinical) (Amyloid β; mild to moderate AD subjects): Did not improve

5-(3-methoxy-4-propyloxycinnamate)-3-(2-(S)-pyrrolidinylmethoxy)pyridine [GKS-007]
effect on [3H]PIB binding (Aβ amyloid plaques): some inhibitory effect | GM/WM ratio of [3H]PIB binding (Aβ amyloid plaques; [2]): no significant GM/WM ratio reduction | displacement of [3H]cytisine (α4β2* nAChRs): Displacement of significant amounts | affinity at α4β2* nAChR sites (α4β2* nAChRs): high affinity

COc1cc(/C=C/C(=O)CC(=O)/C=C/c2ccc(O)c(OC)c2)ccc1O [Curcumin, curcumin]
GM/WM ratio of [3H]PIB binding (Aβ amyloid plaques; [1]): 1.5 | reduction of [3H]PIB binding (Aβ amyloid plaques; 10 μM, human frontal cortex): 50% | displacement of [3H]PIB (words, discussion) (Aβ amyloid plaques; human frontal cortex): significant displacement effect

CNc1ccc(N=Nc2ccc(N(C)C)cc2)cc1 [TAZA, N,N,N′-trimethyl-4,4′-azodianiline]
effect on [3H]PIB binding (Aβ amyloid plaques): significant displacement | GM/WM ratio of [3H]PIB binding (Aβ amyloid plaques; [2]): 1.3 | displacement of [3H]PIB (words, discussion) (Aβ amyloid plaques; human frontal cortex): greater than observed by curcumin

Fexofenadine-(3-methoxy-4-(1′-aminobutyryloxy)cinnamic acid [KD003]
GM/WM ratio of [3H]PIB binding (Aβ amyloid plaques; [1]): 2.4 | effect on [3H]PIB binding level (Aβ amyloid plaques; 10 μM): higher levels

5-(3′-Ethyl 3-methoxy-4-propyloxycinnamate)-3-(2-(S)-pyrrolidinylmethoxy)pyridine [GKS-006]
displacement of [3H]cytisine (α4β2* nAChRs): Displacement of significant amounts | affinity at α4β2* nAChR sites (α4β2* nAChRs): high affinity

COc1cc(/C=C/C(=O)O)ccc1O [FA, ferulic acid]
effect on [3H]PIB binding (Aβ amyloid plaques): did not significantly affect the binding | GM/WM ratio of [3H]PIB binding (Aβ amyloid plaques; [2]): approx. 2 | GM/WM ratio of [3H]PIB binding (Aβ amyloid plaques; [1]): 2 | effect on [3H]PIB binding level (Aβ amyloid plaques; 10 μM): higher levels | displacement of [3H]PIB (words, discussion) (Aβ amyloid plaques; human frontal cortex): little displacement
